The results in this text go back to PubChem BioAssay (NCI).

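Briefly, cells in 96-well plates were exposed to five compound concentrations for 48 h, and endpoints were estimated by linear interpolation. Here, GI50 denotes the concentration required for 50% inhibition of growth. The concentration for full growth arrest is given as TGI.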 Some results are limits rather than exact numbers.

Holding throughout (assay): NCI-60 cell line screen, 48 h
Test [1] has as its system ACHN renal.
Test [2] deals with HT29 colon.
For test [3], the system named is PC-3 prostate.
Test [4] concerns SF-295 CNS.
Test [5] concerns SK-MEL-2 melanoma.
Test [6] relates to SK-MEL-5 melanoma.
The test system of test [7] is SNB-19 CNS.
Test [8] has as its system SNB-75 CNS.

For the compound `COc1cccc(C2=C(c3c(C)n(C)c4ccccc34)C(=O)NC2=O)c1`, the GI50 is above 25 µM in test [1]; 14.4 µM in test [2]; 16.3 µM in test [3]; above 25 µM in test [4]; above 25 µM in test [5]; 9.81 µM in test [6]. Moreover, the results for the GI50 in test [7] and in test [8] were above 25 µM and 6.63 µM, respectively. Besides, the TGI in test [1], in test [2], in test [3], in test [4], in test [5] and in test [6] was above 25 µM throughout. Further, the TGI in test [7] and in test [8] was above 25 µM each time.

In the case of `COc1ccc(C2CC(C)(O)Oc3cc4c(cc32)OCO4)cc1` (stereo unspecified), the TGI in test [1] was above 100 µM; in test [2], above 82.6 µM; in test [3], above 81.1 µM; in test [4], above 100 µM; in test [5], 75.2 µM; in test [6], 69 µM. The TGI in test [7] and in test [8] was above 100 µM throughout.

For the compound `CCC1CN2C(=N1)c1ccccc1-c1cc(Cl)ccc12` (stereo unspecified), the GI50 in test [1] is 1.75 µM; in test [2] it was 2.01 µM; in test [3] it was 2.82 µM; in test [4], 3.91 µM; in test [5] it was 2.75 µM; in test [6] it was 2.03 µM. The figures for the GI50 in test [7] and in test [8] were 5.85 µM and 3.73 µM, respectively. In addition, the TGI was determined as 4.21 µM in test [1]; 7.11 µM in test [2]; 11.8 µM in test [3]; 31.3 µM in test [4]; 7.77 µM in test [5]; 4.69 µM in test [6]. Moreover, the TGI in test [7] came to 30.5 µM; in test [8], 16 µM.

`COc1ccc2c(=O)cc(-c3ccncc3)oc2c1OC`: the TGI in test [1] was above 100 µM; in test [2], above 100 µM; in test [3], above 100 µM; in test [4], above 100 µM; in test [5], 68.2 µM; in test [6], 56.8 µM. Further, the TGI was above 100 µM in test [7] and 41 µM in test [8].

With `COc1ccc(/C=C/C(=O)c2ccc(O)c(CN3CCN(c4cc5c(cc4F)c(=O)c(C(=O)O)cn5C4CC4)CC3)c2)cc1`, the GI50 was 2.18 µM in test [1]; 1.08 µM in test [2]; 1.39 µM in test [3]; 2.1 µM in test [4]; 2.87 µM in test [5]; 1.57 µM in test [6]. For the same compound, the GI50 in test [7] was 0.785 µM; in test [8] it was 0.726 µM. For the same compound, the TGI in test [1] is 17.9 µM; in test [2] it was above 100 µM; in test [3] it was above 100 µM; in test [4], above 100 µM; in test [5] it was 21 µM; in test [6] it was above 100 µM. For the same compound, the TGI in test [7] is above 100 µM; in test [8], 6.86 µM.

`O=C(O)c1cc2ccc3ccccc3c2oc1=O`: the TGI in test [1], in test [2], in test [3], in test [4], in test [5] and in test [6] was above 100 µM each time. The TGI in test [7] and in test [8] was above 100 µM each time.

For `CNC(=O)c1cccc2cc(Oc3ccnc4cc(OCC5(N)CC5)c(OC)cc34)ccc12`, the GI50 in test [1] is 1.96 µM; in test [2] it was 6.73 µM; in test [3] it was 11 µM; in test [4], 10.1 µM; in test [5] it was 14.3 µM; in test [6], 13.4 µM. Moreover, the results for the GI50 in test [7] and in test [8] were 5.82 µM and 0.76 µM, respectively. The TGI is 4.48 µM in test [1]; 21.1 µM in test [2]; 25.9 µM in test [3]; 25 µM in test [4]; 32 µM in test [5]; 26.7 µM in test [6]. In addition, the figures for the TGI in test [7] and in test [8] were 30.4 µM and 15.5 µM, respectively.

With `O=S(=O)(Nc1ccc(Br)c(Cl)c1)c1ccc(-c2cnc(C3CC3)o2)cc1`, the GI50 in test [1] was 0.562 µM; in test [2] it was 0.356 µM; in test [3], 0.493 µM; in test [4], 0.343 µM; in test [5], 2.45 µM; in test [6], 0.602 µM. Moreover, the GI50 in test [7] was 0.517 µM; in test [8] it was 0.196 µM. Also, the TGI in test [1] stood at 18.2 µM; in test [2] it was 5.23 µM; in test [3], 14.8 µM; in test [4], 3.41 µM; in test [5], 24 µM; in test [6], 13.9 µM. Besides, the TGI is 16.2 µM in test [7] and 0.662 µM in test [8].

With `COc1cc2oc3cc(=O)cc4oc(-c5ccccc5)cc(c2c2c1CCC(c1ccccc1)O2)c43` (stereo unspecified), the TGI in test [1] was 61.9 µM; in test [2], 66.2 µM; in test [3], above 100 µM; in test [4], 54.9 µM; in test [5], above 100 µM; in test [6], 65.1 µM. Also, the TGI in test [7] and in test [8] was above 100 µM each time.

Turning to `COc1c(O)cc2oc(-c3ccc(O)cc3)cc(=O)c2c1O`, the TGI is above 100 µM in test [1]; above 100 µM in test [2]; above 100 µM in test [3]; above 100 µM in test [4]; above 100 µM in test [5]; 63.7 µM in test [6]. The TGI in test [7] was above 100 µM; in test [8], 58.2 µM.

`COc1cc(Nc2c(C#N)cnc3cc(OCCCN4CCN(C)CC4)c(OC)cc23)c(Cl)cc1Cl`: the GI50 in test [1] is 0.317 µM; in test [2], 0.689 µM; in test [3], 5.02 µM; in test [4], 7.55 µM; in test [5], 2.97 µM; in test [6], 2.09 µM. Also, the GI50 in test [7] is 9.26 µM; in test [8], 0.707 µM. In addition, the TGI in test [1] came to 9.7 µM; in test [2], 5.38 µM; in test [3] it was 16.7 µM; in test [4], 21 µM; in test [5] it was 8.67 µM; in test [6] it was 5.71 µM. Further, the TGI in test [7] stood at 21.1 µM; in test [8], 8.38 µM.
